Columns and labels:
Rattus norvegicus [1] = assay: Anti-inflammatory activity in Rattus norvegicus Wistar (rat) assessed as inhibition of carrageenan-induced paw edema at 20 mg/kg, ip administered 30 min post carrageenan-challenge measured after 2.5 hr relative to control; assay type: functional; conditions: route intraperitoneal
Rattus norvegicus [2] = assay: Anti-inflammatory activity in Rattus norvegicus Wistar (rat) assessed as inhibition of carrageenan-induced paw edema at 10 mg/kg, ip administered 30 min post carrageenan-challenge measured after 2.5 hr relative to control; assay type: functional; conditions: route intraperitoneal

CCc1nnc2sc(-c3c[nH]nc3-c3ccccc3)nn12
inhibition in vivo at 20 mg/kg (Rattus norvegicus [1]): 29.4%

CCc1nnc2sc(-c3c[nH]nc3-c3ccc(F)cc3)nn12
inhibition in vivo at 20 mg/kg (Rattus norvegicus [1]): 23.5%

CCc1nnc2sc(-c3c[nH]nc3-c3ccc(OC)cc3)nn12
inhibition in vivo at 20 mg/kg (Rattus norvegicus [1]): 17.6%

CCc1nnc2sc(-c3c[nH]nc3-c3ccc(Cl)cc3)nn12
inhibition in vivo at 20 mg/kg (Rattus norvegicus [1]): 56.9%

CCCc1nnc2sc(-c3c[nH]nc3-c3ccccc3)nn12
inhibition in vivo at 20 mg/kg (Rattus norvegicus [1]): 56.9%

CCCc1nnc2sc(-c3c[nH]nc3-c3ccc(F)cc3)nn12
inhibition in vivo at 20 mg/kg (Rattus norvegicus [1]): 12%

CCCc1nnc2sc(-c3c[nH]nc3-c3ccc(OC)cc3)nn12
inhibition in vivo at 20 mg/kg (Rattus norvegicus [1]): 13.5%

CCCc1nnc2sc(-c3c[nH]nc3-c3ccc(Cl)cc3)nn12
inhibition in vivo at 20 mg/kg (Rattus norvegicus [1]): 64.7%

CCc1nnc2sc(-c3c[nH]nc3-c3ccc(Cl)cc3Cl)nn12
inhibition in vivo at 20 mg/kg (Rattus norvegicus [1]): 25.5%

CCCc1nnc2sc(-c3c[nH]nc3-c3ccc(Cl)cc3Cl)nn12
inhibition in vivo at 20 mg/kg (Rattus norvegicus [1]): 23.5%

O=C(O)Cc1ccccc1Nc1c(Cl)cccc1Cl [DICLOFENAC SODIUM]
inhibition in vivo at 10 mg/kg (Rattus norvegicus [2]): 80.4%

Source: ChEMBL document CHEMBL3046807, “Synthesis and anti-inflammatory evaluation of some new 3,6-disubstituted-1,2,4-triazolo-[3,4-b]-1,3,4-thiadiazoles bearing pyrazole moiety” (2012)
